According to patent publication US9487558B2, “Short bio-active peptides for promoting wound healing” (HELIX BIOMEDIX, INC., priority 2013, dated 2016):
Ends that are not written are not given here. Peptide text beside a SMILES is read from it.

Assays:
[1] = MTT cytotoxicity on normal human skin keratinocytes; settings: normal human epidermal keratinocytes
Procedure: (§1) To make sure the peptides are not cytotoxic to the cells, normal human epidermal keratinocytes were seeded to a 96-well plate. The plate was incubated at 37° C. in the presence of 5% CO2 to allow the cells to grow to >95% confluent. Peptides are diluted into stock solutions at concentrations of 50, 100, 200, and 500 μg/ml. The cell culture media are replaced with fresh media containing peptides at various concentrations then incubated at 37° C. and 5% CO2 for 24 hr. At the end of treatment the cell viability was measured using MTT assay kit purchased from ATCC (Manassas Va.).

[2] = in vitro; settings: human, normal human epidermal keratinocytes
Procedure: as §1

[3] = test system: wound repair in a murine model; settings: cited from earlier work

| Compound | CC50 at 24 h [1] [µg/mL] | other results |
| --- | --- | --- |
| CC[C@H](C)[C@H](NC(=O)[C@@H](N)CCCCN)C(=O)N[C@@H](CCC(=O)O)C(=O)N[C@@H](CCCCN)C(=O)O [HB2232, KIEK] (H-KIEK-OH) | > 500 |  |
| CSCC[C@H](NC(=O)[C@H](CCCCN)NC(=O)[C@@H](N)CCC(=O)O)C(=O)NCC(=O)O [HB2234, EKMG] (H-EKMG-OH) | > 500 |  |
| CSCC[C@H](N)C(=O)NCC(=O)N[C@@H](CCCNC(=N)N)C(=O)N[C@@H](CC(N)=O)C(=O)O [HB2235, MGRN] (H-MGRN-OH) | > 500 |  |
| CSCC[C@H](NC(=O)[C@@H](N)CCCCN)C(=O)NCC(=O)O [HB2268, KMG] (H-Lys-Met-Gly-OH) |  | CC50 at 24 h [2]: > 500 µg/mL |
| N=C(N)NCCC[C@H](NC(=O)CN)C(=O)N[C@@H](CC(N)=O)C(=O)O [HB2269, GRN] (H-Gly-Arg-Asn-OH) | > 500 |  |
| EKMGR [HB2263, EKMGR] | > 500 |  |
| EKMGRN [HB2265, EKMGRN] | > 500 |  |
| GRNIRN [HB1062, GRNIRN] | > 500 |  |
| KMGRN [HB2262, KMGRN] | > 500 |  |
| MPKEKVFLKIEKMGRNIRN (Peptide HB107) [non-antimicrobial host defense peptide derived from cecropin B] |  | Benefit in wound repair ([3]; murine model, compared with growth factor rhPDGF): indistinguishable from the wound treated with growth factor rhPDGF; Epidermal hyperplasia (histological analysis of treated wounds) ([3]; murine wounds): increased |
